Reference: PubChem BioAssay (NCI)
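The compound was tested at five concentrations on cells cultured in 96-well plates, with a 48-hour exposure period. Definition used: TGI = concentration required for complete inhibition of growth.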

Tests used:
Test in all cases: inhibition of tumour cell growth, NCI panel, 48 h
786-0 renal = test system: 786-0 renal
A498 renal = test system: A498 renal
A549 NSCLC = test system: A549 NSCLC
ACHN renal = test system: ACHN renal
CAKI-1 renal = test system: CAKI-1 renal
CCRF-CEM leukemia = test system: CCRF-CEM leukemia
COLO 205 colon = test system: COLO 205 colon
DLD-1 colon = test system: DLD-1 colon
DMS 114 small cell lung = test system: DMS 114 small cell lung
DMS 273 small cell lung = test system: DMS 273 small cell lung
HCC-2998 colon = test system: HCC-2998 colon
HCT-116 colon = test system: HCT-116 colon
HCT-15 colon = test system: HCT-15 colon
HL-60(TB) leukemia = test system: HL-60(TB) leukemia
HOP-18 NSCLC = test system: HOP-18 NSCLC
HOP-62 NSCLC = test system: HOP-62 NSCLC
IGROV1 ovarian = test system: IGROV1 ovarian
K-562 leukemia = test system: K-562 leukemia
KM12 colon = test system: KM12 colon
KM20L2 colon = test system: KM20L2 colon
LXFL 529 NSCLC = test system: LXFL 529 NSCLC
M14 melanoma = test system: M14 melanoma
M19-MEL melanoma = test system: M19-MEL melanoma
MALME-3M melanoma = test system: MALME-3M melanoma
MOLT-4 leukemia = test system: MOLT-4 leukemia
NCI-H226 lung = test system: NCI-H226 lung
NCI-H460 lung = test system: NCI-H460 lung
NCI-H522 lung = test system: NCI-H522 lung
OVCAR-3 ovarian = test system: OVCAR-3 ovarian
OVCAR-4 ovarian = test system: OVCAR-4 ovarian
RPMI-8226 leukemia = test system: RPMI-8226 leukemia
RXF 393 renal = test system: RXF 393 renal
RXF-631 renal = test system: RXF-631 renal
SF-268 CNS = test system: SF-268 CNS
SF-539 CNS = test system: SF-539 CNS
SK-MEL-2 melanoma = test system: SK-MEL-2 melanoma
SK-MEL-28 melanoma = test system: SK-MEL-28 melanoma
SK-MEL-5 melanoma = test system: SK-MEL-5 melanoma
SK-OV-3 ovarian = test system: SK-OV-3 ovarian
SN12C renal = test system: SN12C renal
SNB-19 CNS = test system: SNB-19 CNS
SNB-75 CNS = test system: SNB-75 CNS
SNB-78 CNS = test system: SNB-78 CNS
SR leukemia = test system: SR leukemia
SW-620 colon = test system: SW-620 colon
TK-10 renal = test system: TK-10 renal
U251 CNS = test system: U251 CNS
UACC-257 melanoma = test system: UACC-257 melanoma
UACC-62 melanoma = test system: UACC-62 melanoma
UO-31 renal = test system: UO-31 renal
HOP-92 NSCLC = test system: HOP-92 NSCLC
HT29 colon = test system: HT29 colon
LOX IMVI melanoma = test system: LOX IMVI melanoma
NCI-H23 lung = test system: NCI-H23 lung
OVCAR-5 ovarian = test system: OVCAR-5 ovarian
OVCAR-8 ovarian = test system: OVCAR-8 ovarian
SF-295 CNS = test system: SF-295 CNS
EKVX NSCLC = test system: EKVX NSCLC
XF 498 CNS = test system: XF 498 CNS

Measured: TGI

CCOP(=O)(OCC)/C(C#N)=C/c1ccc[nH]1
not listed: A498 renal | HCC-2998 colon | IGROV1 ovarian | RXF-631 renal | EKVX NSCLC | XF 498 CNS
> 100 µM: all other assays above

NC(CCCNc1cccc(O)c1)C(=O)O (stereo not drawn)
not listed: HCC-2998 colon | IGROV1 ovarian | KM12 colon | RXF-631 renal | SF-539 CNS | NCI-H23 lung | XF 498 CNS
> 100 µM: all other assays above

COc1cc2c(oc(=O)c3cc4ccoc4c(OC)c32)c2cccc(O)c12
not listed: RXF-631 renal
> 100 µM: all other assays above
